≈ marks a conversion by molar mass, not a printed value.
How the values were obtained:
[1] = test system: CD4+ T cells; test: in vitro T-cell activation assay (CTV retention, flow cytometry); type: cell-based, mouse
Description: The reduced level of the immunosuppressive activity of the four kinds of novel compounds was examined using a common in vitro T-cell activation assay (J. Immunol. 143:718-726, 1989). […] When CD4+ T cells are stained with Cell Trace™ Violet (CTV), CTV retention of each cell decreases, as cells divide and T cells proliferate according to the immune response, and thus immunosuppressive activity was examined using the CTV retention as an index.
Single cells were isolated from the spleen of 6- to 8-week-old B6J laboratory mouse, and CD4+ T cells were isolated using MagniSort® Mouse CD4 T cell Enrichment Kit (eBioscience). CD4+ T cells were stained with Cell Trace™ Violet (CTV) Cell Proliferation Kit (Molecular Probes) and FK506 or each of the four kinds of novel compounds was added at a concentration of 0.01 ng/mL, 0.1 ng/mL, 1 ng/mL, 10 ng/mL, 100 ng/mL, 1000 ng/mL, followed by incubation for 72 hours. For activation of T cells. Dynabeads® Mouse T-Activator CD3/CD28 (Gibco) was used. As a control group, non-activated T cells were used. After incubation, CTV intensity was analyzed by flow cytometry.

[2] = test system: primary cultured murine hippocampal neurons; test: neurite outgrowth in primary cultured hippocampal neurons; type: cell-based; conditions: treatment concentration 1 ng/mL, neurite lengths, FIG. 26
Method: The neuronal growth-promoting ability of the four kinds of novel compounds was examined using primary cultured murine hippocampal neurons according to a method reported by Jing Sun et al. (J. Neuroinflam. 15:180, 2018). […] The neurite lengths were measured on photographic prints according to a previously reported method (J. Pharmacol. Exp. Ther. 302:1278-1285, 2002).

[3] = test system: nigrostriatal dopaminergic pathway; test: MPTP-induced Parkinson's disease animal model, TH immunohistochemistry; type: in vivo, mouse; conditions: cannula injection into brain for 3 days, 5 mg/mL, MPTP i.p. on day 2, measured day 4, FIG. 28A
[4] = test system: Salmonella typhimurium TA98; test: Ames test (reverse mutation), histidine auxotroph strain; conditions: 4 μg, 16 μg, 64 μg per plate
Method: (§1) To examine safety of the four kinds of novel compounds, an MTT assay for a cytotoxicity test, an Ames test for rapid evaluation of genotoxicity, and an hERG assay for evaluation of potential effects on cardiac repolarization were carried out. Methods generally used were conducted for the examination.
(§2) In detail, in the MTT assay, 80 to 800 times higher concentrations (100 nM to 1,000 nM) than the […] (1 ng/mL=1.24 nM) were determined as test concentrations of the four kinds of novel compounds. and the drug cytotoxicity was measured in mammalian normal cells (HEK293 T Cell). In the Ames test, the four kinds of novel compounds were treated at a concentration of 4 μg, 16 μg, 64 μg per plate, respectively, and the four kinds of novel compounds were evaluated by examining whether reverse mutation was induced a histidine auxotroph strain (Salmonella typhimurium TA98) and a tryptophan auxotroph strain (Escherichia coli WP2 uvrA). In the hERG assay, 0 μM, 2 μM, 8 μM, and 32 μM of each of the four kinds of novel compounds were treated to two or more numbers of cells. One CHO hERG cell was perfused with a normal tyrode solution. After confirming that the hERG channel current was recorded consistently for 3 to 4 sweeps, an excipient control group and the groups, each treated with one of the four kinds of novel compounds, were perfused for about 1 minute to 2 minutes or longer, and the magnitude of the hERG channel current was allowed to constantly record, and the magnitude of the relative current (pA or nA) and the suppression rate (%) were measured.

[5] = test system: Escherichia coli WP2 uvrA; test: Ames test (reverse mutation), tryptophan auxotroph strain; conditions: 4 μg, 16 μg, 64 μg per plate
Method: as §1, §2

[6] = molecular target: T1, hERG channel (Homo sapiens, UniProt Q12809); test: hERG assay in CHO hERG cells; type: cell-based; conditions: 0 μM, 2 μM, 8 μM, and 32 μM
T1 construct: expressed in transfected cells; host or cells: CHO hERG cells
T1 sequence (Q12809 whole entry): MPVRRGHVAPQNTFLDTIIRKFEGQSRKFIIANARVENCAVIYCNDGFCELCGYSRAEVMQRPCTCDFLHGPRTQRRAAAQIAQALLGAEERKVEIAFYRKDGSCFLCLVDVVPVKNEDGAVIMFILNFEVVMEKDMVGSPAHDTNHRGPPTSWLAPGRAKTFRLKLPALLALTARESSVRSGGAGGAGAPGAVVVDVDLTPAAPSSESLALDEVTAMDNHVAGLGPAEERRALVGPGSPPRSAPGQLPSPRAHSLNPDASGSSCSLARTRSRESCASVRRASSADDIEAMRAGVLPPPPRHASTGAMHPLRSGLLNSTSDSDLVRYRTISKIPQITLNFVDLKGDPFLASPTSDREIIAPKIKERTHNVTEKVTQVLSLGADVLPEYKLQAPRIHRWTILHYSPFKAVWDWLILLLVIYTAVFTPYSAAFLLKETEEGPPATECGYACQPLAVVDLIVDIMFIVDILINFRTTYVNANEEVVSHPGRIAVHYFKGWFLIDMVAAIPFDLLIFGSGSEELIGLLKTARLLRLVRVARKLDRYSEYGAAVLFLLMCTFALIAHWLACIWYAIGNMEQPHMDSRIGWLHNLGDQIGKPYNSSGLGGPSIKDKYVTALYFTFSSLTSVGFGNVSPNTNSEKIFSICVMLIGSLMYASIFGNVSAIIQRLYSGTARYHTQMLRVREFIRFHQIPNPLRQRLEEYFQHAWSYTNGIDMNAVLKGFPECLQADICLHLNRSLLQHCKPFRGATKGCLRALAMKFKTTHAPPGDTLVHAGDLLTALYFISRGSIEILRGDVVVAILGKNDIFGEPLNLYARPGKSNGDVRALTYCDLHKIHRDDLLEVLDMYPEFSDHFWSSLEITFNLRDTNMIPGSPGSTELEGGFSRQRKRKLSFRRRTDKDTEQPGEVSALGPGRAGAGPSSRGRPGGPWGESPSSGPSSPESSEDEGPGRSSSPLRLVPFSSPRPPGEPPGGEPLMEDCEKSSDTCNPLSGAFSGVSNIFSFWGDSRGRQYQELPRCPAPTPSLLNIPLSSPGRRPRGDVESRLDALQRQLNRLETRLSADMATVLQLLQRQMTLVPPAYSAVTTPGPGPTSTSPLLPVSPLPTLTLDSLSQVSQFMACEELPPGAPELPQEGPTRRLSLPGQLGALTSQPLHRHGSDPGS
Description: Further, in still another specific embodiment of the present invention, safety was confirmed in a 3-(4,5-dimethylthiazol-2-yl)-2,5-diphenyltetrazolium bromide (MTT) assay (FIG. 29) for cytotoxicity tests of the four kinds of novel compounds, an Ames test for rapid evaluation of genotoxicity, a human eag-related gene (hERG) assay for evaluation of potential effects on cardiac repolarization.
as §1, §2

[7] = test system: primary cultured murine hippocampal neurons; test: functional synaptogenic activity, patch-clamp recordings of excitatory synaptic currents; type: cell-based; conditions: treatment concentration 1 ng/mL, days 10-14 after primary culture
Method: The functional synaptogenic activity of the four kinds of novel compounds was examined using primary cultured murine hippocampal neurons according to a method reported by D. Park. et al. (Sci. Rep. 7:7260, 2017). In detail, hippocampal neurons on days 10-14 after primary culture while being exposed to FK506 or each of the four kinds of novel compounds (treatment concentration: 1 ng/mL) was subjected to patch-clamp recordings to measure frequency of excitatory synaptic currents. The frequency of excitatory synaptic currents is used as an index for changes in the number of synapses.

[8] = test system: HEK293 T Cell; test: MTT assay for cytotoxicity; type: cell-based; conditions: 100 nM to 1,000 nM, FIG. 29
Method: as §1, §2

Row | Compound | Immunosuppression IC50 ([1]; activated mouse CD4+ T cells (CD3/CD28), 72 hours incubation, CTV intensity by flow cytometry) [ng/mL] | neurite outgrowth effect [2] | recovery in the density of neuron fibers [3] | reverse mutation induction (Ames test) [4] | reverse mutation induction (Ames test) [5] | risk of cardiac repolarization (hERG channel current) [6] | spontaneous excitatory synaptic currents (sEPSCs), frequency [7] | cytotoxicity (MTT) [8] | immunosuppressive activity as compared with FK506 ([1]; T cell proliferation, CTV intensity, Table 7 and FIG. 25) | IC50 ([1]; activated mouse CD4+ T cells (CD3/CD28), 72 hours incubation, CTV intensity by flow cytometry, read-out: Immunosuppression IC50) [µg/mL]
1 | 9-deoxo-prolyl FK520 | 3288.8 | superior neurite outgrowth effect, as compared with FK506 | superior recovery in the density of neuron fibers, as compared to those treated with FK506 | without inducing reverse mutations | without inducing reverse mutations | without risk of cardiac repolarization | – | – | – | –
2 | CCC[C@@H]1/C=C(\C)C[C@H](C)C[C@H](OC)[C@H]2O[C@@](O)(CC(=O)N3CCC[C@H]3C(=O)O[C@H](/C(C)=C/[C@@H]3CC[C@@H](O)[C@H](O)C3)[C@H](C)[C@@H](O)CC1=O)[C@H](C)C[C@@H]2OC [9-deoxo-31-O-demethyl-36,37-dihydro-prolyl FK506] | – | – | superior recovery in the density of neuron fibers, as compared to those treated with FK506 | without inducing reverse mutations | without inducing reverse mutations | without risk of cardiac repolarization | 2.63±0.27 | no cytotoxicity was observed | – | –
3 | CC[C@@H]1/C=C(\C)C[C@H](C)C[C@H](OC)[C@H]2O[C@@](O)(CC(=O)N3CCC[C@H]3C(=O)O[C@H](/C(C)=C/[C@@H]3CC[C@@H](O)[C@H](O)C3)[C@H](C)[C@@H](O)CC1=O)[C@H](C)C[C@@H]2OC [9-deoxo-31-O-demethyl-prolyl FK520] | – | – | superior recovery in the density of neuron fibers, as compared to those treated with FK506 | without inducing reverse mutations | without inducing reverse mutations | without risk of cardiac repolarization | – | no cytotoxicity was observed | lowest immunosuppressive activity | 7.09 (≈ 9.45 µM)
4 | CCC[C@@H]1/C=C(\C)C[C@H](C)C[C@H](OC)[C@H]2O[C@@](O)(CC(=O)N3CCC[C@H]3C(=O)O[C@H](/C(C)=C/[C@@H]3CC[C@@H](O)[C@H](OC)C3)[C@H](C)[C@@H](O)CC1=O)[C@H](C)C[C@@H]2OC [9-deoxo-36,37-dihydro-prolyl FK506] | – | – | superior recovery in the density of neuron fibers, as compared to those treated with FK506 | without inducing reverse mutations | without inducing reverse mutations | without risk of cardiac repolarization | 3.29±0.22 | no cytotoxicity was observed | – | –
5 | C=CC[C@@H]1/C=C(\C)C[C@H](C)C[C@H](OC)[C@H]2O[C@@](O)(C(=O)C(=O)N3CCCC[C@H]3C(=O)O[C@H](/C(C)=C/[C@@H]3CC[C@@H](O)[C@H](OC)C3)[C@H](C)[C@@H](O)CC1=O)[C@H](C)C[C@@H]2OC [FK506] | – | – | – | – | – | – | 2.61±0.18 | – | – | –
